Data published in publication PMC12595617, “Investigating the potential role of metabolic resistance genes in conferring cross-resistance to pyrethroids and polycyclic aromatic hydrocarbon pollutants in the major malaria vector Anopheles coluzzii” (BMC Genomics, 2025).
Where “and” joins values, the source holds several entries; their conditions need not be identical. Equal entries are not always repeated. Where two headings read alike, the source gives them in different places.

Experiments:
recombinant CYP6Z2 = tested on: recombinant CYP6Z2
Method: (§1) The recombinant P450s used in this study were acquired from the enzyme characterization group (ECG) leader, Dr. Mark J.I. Paine of the Vector Biology Department, Liverpool School of Tropical Medicine. All the P450s were expressed from field-resistant populations of An. gambiae except for CYP6P9a, which was expressed from An. funestus. The heterologous expression of the P450s was conducted according to the previously described approaches. Briefly, P450s were expressed by using ompA and pelB signal sequences to direct P450 and An. gambiae CPR (AgCPR), respectively, to the inner membrane of E. coli a functional monooxygenase. The P450 sequences were amplified from cDNA and fused to the ompA signal peptides in simple PCR reactions. This is followed by ligation of the digested fragments into linearized expression vector pCWori+, thereby creating a construct pB13:ompA + 2-P450. Competent JM109 cells were co-transformed with plasmids pB13:ompA + 2-P450 and pACYC-AgCPR for the expression of functional P450 and An. gambiae CPR, respectively. Colonies carrying the two plasmids as confirmed by the colony PCR are used for a 12–14 h starter culture overnight. Typically, 0.2 L cultures were supplemented with 2 mL from the starter cultures and incubated at 37 °C and 200 rpm shaking while the absorbance at 600 nm was being monitored. When the OD reached 0.6–0.8, the cultures were cooled down to 25 °C for 30 min with shaking at 150 rpm. Induction with 1 mM isopropyl β-D-1-thiogalactopyranoside (IPTG) and 0.5 mM 5-aminolaevulinic acid (ALA) was conducted. Determinations of the P450 content and CPR activity were conducted using the procedure of [61] and [60], respectively.
(§2) To compare the metabolic activity of the microsomes and the recombinant cytochrome P450s towards PAH metabolism assays were conducted side by side as described earlier. The NADPH regeneration mixture (consisting of 0.1 M NADP+, 50mM potassium phosphate buffer, pH 7.4, 1 mM glucose-6-phosphate, 0.25 mM magnesium chloride and 1U/ml glucose-6-phosphate dehydrogenase) was used in the positive replicates. For the negatives, the same buffer with no added NADP + was used. Enzyme-buffer mix comprised of 0.05 µM recombinant P450 or microsome, 0.4 µM cytochrome b5, 50 mM potassium phosphate buffer pH 7.4 and 20 µM of the PAH substrates. To initiate the reactions, regeneration mixture was added to the enzyme-buffer mix in a 1:1 ratio (total of 200 µl) following activation for 5 min at 30 °C and 1200 rpm shaking. The reaction was run for 2 h at 30 °C with 200 rpm shaking. To stop the reaction, 200 µl of ice-cold High Performance Liquid Chromatography (HPLC) grade acetonitrile was added, followed by additional shaking for 5 min to precipitate the proteins. The mixture was kept on ice for 10 min before centrifuging at 16,000xg for 20 min. The supernatants were filtered through 0.45 μm PTFE filters (ThermoFisher Scientific, MA, USA) and filtrate transferred to HPLC vials for onward analysis.
(§3) Using the Agilent HPLC 1200 infinity series, analysis of the PAHs metabolism was conducted. The HPLC conditions consisted of mobile phases of HPLC grade acetonitrile and water in the ratio of 80/20 and detected at a wavelength of 254 nm.

recombinant CYP6Z3 = tested on: recombinant CYP6Z3
Method: as §1, §2, §3

Auyo microsomal P450 = test: in vitro; type: in vitro ADME, Anopheles coluzzii
Method: For the determination of steady-state kinetic parameters, assays were conducted for 30 min with 0.05 µM microsomal P450 while varying the concentrations of fluorene (0–600 µM). Kinetics plot of velocity against the substrate concentrations was made using the least squares non-linear regression in GraphPad Prism 6.03 Software (GraphPad Inc., La Jolla, CA, USA) that fits into the canonical Michaelis-Menten model as previously described for pyrethroid insecticides.

CYP9J5 = type: in vitro ADME, An. gambiae; conditions: Anopheles gambiae, 2 h, 20 µM, pH 7.4
Method: (§5) To compare the metabolic activity of the microsomes and the recombinant cytochrome P450s towards PAH metabolism assays were conducted side by side as described earlier [38, 43]. The NADPH regeneration mixture (consisting of 0.1 M NADP+, 50mM potassium phosphate buffer, pH 7.4, 1 mM glucose-6-phosphate, 0.25 mM magnesium chloride and 1U/ml glucose-6-phosphate dehydrogenase) was used in the positive replicates. For the negatives, the same buffer with no added NADP + was used. Enzyme-buffer mix comprised of 0.05 µM recombinant P450 or microsome, 0.4 µM cytochrome b5, 50 mM potassium phosphate buffer pH 7.4 and 20 µM of the PAH substrates. To initiate the reactions, regeneration mixture was added to the enzyme-buffer mix in a 1:1 ratio (total of 200 µl) following activation for 5 min at 30 °C and 1200 rpm shaking. The reaction was run for 2 h at 30 °C with 200 rpm shaking. […]
(§6) Using the Agilent HPLC 1200 infinity series, analysis of the PAHs metabolism was conducted. The HPLC conditions consisted of mobile phases of HPLC grade acetonitrile and water in the ratio of 80/20 and detected at a wavelength of 254 nm. […] Percentage depletions for each compound were calculated in both the microsomal and recombinant P450 studies. […]

CYP9K1 = type: in vitro ADME, An. gambiae; conditions: Anopheles gambiae, 2 h, 20 µM, pH 7.4
Method: as §5, §6

CYP6P4 = type: in vitro ADME, An. gambiae; conditions: Anopheles gambiae, 2 h, 20 µM, pH 7.4
Method: as §5, §6

Auyo microsomes [1] = test: Fluorene turnover assay using microsomes; type: in vitro ADME, Anopheles coluzzii; conditions: fluorene 30 µM, run time 15-150 min
Method: Because of the higher percentage of depletion observed in the Auyo microsomal metabolism of fluorene, it was chosen to be analysed further for its turnover and kinetic studies. To understand the turnover rates of the fluorene depletions, reaction run time was varied between 15 and 150 min. Specific points used were 15, 30, 45, 60, 90, 120 and 150 min while the fluorene concentration was maintained at 30 µM in all these time points.

recombinant CYP6P3 = conditions: recombinant CYP6P3, 0.05 µM P450, 20 µM PAH, 2 h, 30 °C, +NADPH vs -NADPH
Method: as §1, §2, §3

[2] = tested on: microsomes prepared from pyrethroid-resistant Anopheles coluzzii (Auyo); conditions: Auyo (field-resistant) larval microsomes, 0.05 µM P450, 20 µM PAH, 2 h, 30 °C, +NADPH vs -NADPH, mean ± SD of three replicates
Method: as §2, with “The supernatants were filtered through 0.45 μm PTFE filters (ThermoFisher Scientific, MA, USA) and filtrate transferred to HPLC vials for onward analysis.” left out
as §3

Auyo microsomes [3] = test: Microsomal P450 activity with model probe substrate DEF, Auyo; type: biochemical, Anopheles coluzzii; conditions: 10 µM DEF, 0.05 µM P450, read for 15 min
Method: (§4) P450 activity was determined in the prepared microsomes from both Auyo and Ngousso strains using diethoxyfluorescein (DEF) as the model fluorogenic substrate using the methods earlier described. Briefly, the enzyme-buffer mix consisted of 0.05 µM of cytochrome P450 (microsomes), 50 mM potassium phosphate buffer, pH 7.4, 0.5 µM cytochrome b5 and 10 µM DEF. To initiate the reactions in a 96-well plates (Thermo Labsystems, Basingstoke, UK), a NADPH ([…]) regeneration mix (consisting of 1mM glucose-6-phosphate, 0.1 M NADP+, 0.25mM magnesium chloride, IU/ml glucose-6-phosphate dehydrogenase and 50 mM potassium phosphate buffer pH 7.4) was added in the positive replicates whereas the same buffer with no NADPH was added in the negative wells. Using the excitation (482 nm) and emission (520 nm) wavelengths of DEF, the […] was read for 15 min, and the relative fluorescence unit per min per picomole of the P450 (RFU/min/pmol of P450) was determined.

Ngousso microsomes = test: Microsomal P450 activity with model probe substrate DEF, Ngousso; type: biochemical, Anopheles coluzzii; conditions: 10 µM DEF, 0.05 µM P450, read for 15 min
Method: as §4

[4] = tested on: all the recombinant P450s used in this study (CYPs 6M2, 6Z2, 6Z3, 9J5, 6P3, 6P4, 6P5, CYP9K1, CYP6P9a); test: In vitro metabolism of PAHs with the whole recombinant P450 panel; type: in vitro ADME, An. gambiae / An. funestus; conditions: Anopheles gambiae; Anopheles funestus (CYP6P9a), 2 h, 20 µM, pH 7.4
Method: as §5, §6

## c1ccc2c(c1)Cc1ccccc1-2 [fluorene]
Recombinant CYP6Z2
  metabolic activity (in words): strong metabolic activity
Recombinant CYP6Z3
  metabolic activity (in words): strong metabolic activity
Auyo microsomal P450; Anopheles coluzzii
  Km at 30 min: 58.7 µM
Auyo microsomal P450; Auyo microsomes, 0.05 µM microsomal P450, 30 min, fluorene 0–600 µM
  Catalytic rate (Kcat): 0.06993 s⁻¹ and 0.07 ± 0.00733 s⁻¹
Auyo microsomal P450; Auyo microsomes, fluorene
  catalytic efficiency: 0.0715 ± 0.026 min⁻¹ µM⁻¹
CYP9J5
  percentage depletion: 7.7%
CYP9K1
  percentage depletion: 8.5%
CYP6P4
  percentage depletion: 9.3%
Auyo microsomes [1]
  Turnover: 37.016 min⁻¹ and 37.02 min⁻¹

## c1ccc2c(c1)-c1cccc3cccc-2c13 [fluoranthene]
Recombinant CYP6Z2; recombinant CYP6Z2
  metabolic activity (in words): strong metabolic activity
Recombinant CYP6P3
  percentage depletion: more than 40%
Recombinant CYP6Z3; recombinant CYP6Z3
  metabolic activity (in words): strong metabolic activity
[2]
  percentage depletion: 22.8 ± 5.2%

## CCOc1ccc2c(c1)Oc1cc(OCC)ccc1C21OC(=O)c2ccccc21 [DEF, diethoxyfluorescein]
Auyo microsomes [3]
  DEF activity: 4.9 RFU/min/pmole P450
Ngousso microsomes
  DEF activity: 4.4 RFU/min/pmole P450

## c1ccc2ccccc2c1 [naphthalene]
[4]
  percentage depletion: < 10%
